Measurements taken from patent US20240115711A1, “Novel Bifunctional Molecules For Targeted Protein Degradation” (Amphista Therapeutics Limited, priority 2020, published 2024).
Where two headings read alike, the source gives them in different places.

Key:
tumor cell lines [1] = details: up to 94 tumor cell lines, from Ottis et al, identical assay conditions, cited from earlier work; for # tumor cell lines Low sensitivity/Resistant: degrader GI50 < inhibitor; for # tumor cell lines Highly sensitive: degrader GI50 >3 fold more potent than inhibitor
MV4;11 cells = test: Assay 3 - MV4;11 cell viability using CellTiter-Glo assay; type: cell-based; details: Homo sapiens, 48 h incubation
Protocol: 1.3 Assay 3—MV4;11 Cell Viability Using CellTiter-Glo Assay
The anti-proliferative effects of representative compounds were measured using the CellTiter-Glo assay (Promega). MV4;11 cells were seeded into sterile, white, clear-bottomed 384-well cell-culture microplates (Greiner Bio-one), at 2× concentration in IMDM media and a volume of 25 μL. Test compounds were serially diluted (11-pt dose-response from 1 μM) in IMDM media to 2× concentration, then added to cells to make a final volume of 50 μL. Final DMSO concentration was 0.05%. After 48 h incubation, 25 μL of CellTiter-Glo reagent was added to each well. Following a 15 minutes incubation the luminescence signal was read on a CLARIOStar Plus. Data was processed and dose-response curves were generated using Prism 8 (Graphpad).
The impact on cell viability of MV4;11 cells was evaluated according to the procedure outlined in assay 3 for compounds A1, A2, A8 and A9.

tumor cell lines [2] = test: Cancer cell panel screening, GI50 by Sulforhodamine B method; type: cell-based; details: up to 94 tumor cell lines, 72 h
Protocol: Cancer cell panel screening was provided as a service from OncoLead GmbH & Co. KG. After a lag phase of 48 h, each cell line was treated with six different concentrations (10^−10, 10^−9, 10^−8, 10^−7, 10^−6, 10^−5 M) of either A2 or I-BET726 for 72 h. Concentrations to give half-maximal growth inhibition (GI50) were determined using the Sulforhodamine B method. Log(GI50) values were plotted as single points (I-BET726, cross; A2, dot) superimposed on the bar graph and plotted along the right y axis. Log ratio of the GI50 determined for I-BET726 versus the GI50 determined for A2 were plotted for each cell line tested (bars, left y axis).
Where no specific GI50 value could be determined, a GI50 of at least 10^−5 M was assumed to calculate the inhibitor vs degrader ratio.
Similar studies have previously been carried out on CRBN PROTAC (dBET6) and VHL PROTAC (MZ1) (see, for example, Ottis et al, ACS Chem. Biol. 2019, 14, 2215-2223 under identical assay conditions).
Low sensitivity/resistant defined as degrader GI50<inhibitor.

HiBit-BRD4 = biological target: T1, HiBit-BRD4 (Homo sapiens, UniProt O60885); test: Assay 1 - Degradation of HiBit-BRD4 in HEK293; type: cell-based; details: HiBit-BRD4 HEK293, 6 h treatment
T1 construct: HEK293 containing a HiBit insertion for BRD4; endogenous in cells; host or cells: HEK293 with HiBit insertion at BRD4
Protocol: 1.1 Assay 1—Degradation of HiBit-BRD4 in HEK293
HEK293 containing a HiBit insertion for BRD4 were plated in 384-well tissue culture plates at a density of 8×10^4 per well in a volume of 36 μL and incubated overnight at 37° C. and 5% CO2. Wells were treated with test compounds for 6 h prior to addition of the NanoLuc substrate and reading on a […]. Degradation data was plotted and analysed using […] (Graphpad).
The degradation of target protein BRD4 was detected according to the procedure outlined in assay 1 for the following compounds.

[3] = In vivo systemic drug exposure after oral and intravenous dosing; details: female, mouse, plasma, C57BL/6 mice
Protocol: Test compound was administered to C57BL/6 mice, (6-8 weeks, 18-20 g, female, N=6, purchased from JH Laboratory Animal Co. with free access to food and water) at the indicated dose level via oral gavage (p.o., 10 mL/kg, 5% DMSO+95%(15% HP-β-CD in Water) vehicle, oral dosing leg) or tail vein (i.v., 5 mL/kg, 5% DMSO+95%(15% HP-β-CD in Water) vehicle, intravenous leg). The animal was restrained manually at designated time points up to 24 h, approximately 110 μL of blood sample was collected via facial vein into K2EDTA tubes. Blood sample was put on ice and centrifuged at 2000 g for 5 min to obtain plasma sample within 15 minutes which was analysed on an LC-MS/MS-19 (Triple Quad 5500) in positive ion ESI mode following sample prep and HPLC elution:
Mobile Phase: • Mobile Phase A: H2O—0.025% FA—1 mM NH4OAC • Mobile Phase B: MeOH—0.025% FA—1 mM NH4OAc
• Column: ACQUITY UPLC BEH C18 2.1*50 mm 1.7 um • Flow rate: 0.60 mL/min • Column temperature: 60° C.

[4] = In vivo drug exposure in the brain after systemic dosing; details: C57BL/6 mice, intravenous 5 mg/kg dose
Protocol: Blood collection: The animal was restrained manually at designated time points up to 24 h, approximately 110 μL of blood sample was collected via facial vein into K2EDTA tubes. Blood sample was put on ice and centrifuged at 2000 g for 5 min (4° C.) to obtain plasma sample within 15 minutes. Brain collection: The animal was euthanized under CO2. A mid-line incision was made in the animal's scalp and skin retracted. The skull overlying the brain was removed. The whole brain was collected, rinsed with cold saline, dried on filtrate paper, weighted, snap frozen by placing into dry-ice. The sample was homogenized with 3 volumes (v/w) of PBS prior to analysis. Samples were analysed on an LC-MS/MS-19 (Triple Quad 5500) in positive ion ESI mode following sample prep and HPLC elution: Mobile Phase: • Mobile Phase A: H2O—0.025% FA—1 mM NH4OAC • Mobile Phase B: MeOH—0.025% FA—1 mM NH4OAc • Column: waters BEH C18 (2.1×50 mm, 1.7 μm) • Flow rate: 0.60 mL/min • Column temperature: 60° C.

mutant KRas (G12C) = biological target: T2, mutant KRas (G12C) (Homo sapiens, UniProt P01116, G12C); test: Assay 6 - Degradation of KRas-G12C by immunoblot (MIA-PaCa-2 cells); type: cell-based; details: after 24 h treatment with 1000 nM
T2 construct: endogenous in cells; host or cells: MIA-PaCa-2
Protocol: 1.6 Assay 6—Degradation of KRas-G12C by Immunoblot.
MIA-PaCa-2 cells were seeded in 6- or 12-well plates overnight prior to 24 h treatment with test compounds at the desired concentration (DMSO final concentration 0.1%). After 24 h incubation, cells were washed with PBS and lysed with RIPA buffer (Sigma) supplemented with 1 mM MgCl2, 1 U/mL Benzonase (Sigma), and 1× cOmplete Mini EDTA-free Protease Inhibitor Cocktail (Roche). Lysates were clarified by centrifugation (15,000×g, 20 min, 4° C.) and the total protein content of the supernatant was quantified using a BCA assay. Samples were prepared using equal amounts of total protein and LDS sample buffer (Invitrogen). […] Blots were visualised using a Bio-Rad ChemiDoc MP Imaging System, and band quantification was performed using Image Studio software (LiCor). […] Degradation data was plotted and analysed using Prism (Graphpad, version 8).
The degradation of target protein mutant KRas (G12C) was detected according to the procedure outlined in […] for the compound A64.

T2 sequence (P01116 1-188 isoform P01116-2 G12C): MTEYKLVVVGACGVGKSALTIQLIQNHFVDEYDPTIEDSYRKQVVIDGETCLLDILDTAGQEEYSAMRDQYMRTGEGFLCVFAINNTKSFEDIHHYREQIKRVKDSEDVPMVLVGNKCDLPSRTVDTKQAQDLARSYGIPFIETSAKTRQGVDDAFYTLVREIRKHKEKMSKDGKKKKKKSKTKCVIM

SMILES: Cc1sc2c(c1C)C(c1ccc(Cl)cc1)=N[C@@H](CC(=O)NCCCCCCCCNC(=O)COc1cccc3c1C(=O)N(C1CCC(=O)NC1=O)C3=O)c1nnc(C)n1-2 (stereo partly shown) [CRBN PROTAC (dBET6), dBET6]
- # tumor cell lines GI50, <1 μM (tumor cell lines [1]): 58%
- # tumor cell lines Low sensitivity/Resistant (tumor cell lines [1]): 52%
- # tumor cell lines Highly sensitive (tumor cell lines [1]): 29%

SMILES: CCCC(NC(=O)/C(C#N)=C/c1nccs1)c1ccc(OCC(=O)NCCOCCOCCOCCOCCOCCNC(=O)c2ccc(-c3ccc4c(c3)[C@H](Nc3ccc(Cl)cc3)C[C@H](C)N4C(C)=O)cc2)cc1 (stereo partly drawn) [Example A1, 4-((2S,4R)-1-acetyl-4-((4-chlorophenyl)amino)-2-methyl-1,2,3,4-tetrahydroquinolin-6-yl)-N-(1-(4-(1-((E)-2-cyano-3-(thiazol-2-yl)acrylamido)butyl)phenoxy)-2-oxo-6,9,12,15,18-pentaoxa-3-azaicosan-20-yl)benzamide]
- IC50 (MV4;11 cells): 48 nM

SMILES: CCCC(c1ccc(OCC(=O)NCCOCCOCCOCCOCCOCCNC(=O)c2ccc(-c3ccc4c(c3)[C@H](Nc3ccc(Cl)cc3)C[C@H](C)N4C(C)=O)cc2)cc1)N(C)C(=O)/C(C#N)=C/c1nccs1 (stereo partly drawn) [Example A2, 4-((2S,4R)-1-acetyl-4-((4-chlorophenyl)amino)-2-methyl-1,2,3,4-tetrahydroquinolin-6-yl)-N-(1-(4-(1-((E)-2-cyano-N-methyl-3-(thiazol-2-yl)acrylamido)butyl)phenoxy)-2-oxo-6,9,12,15,18-pentaoxa-3-azaicosan-20-yl)benzamide]
- IC50 (MV4;11 cells): 2 nM
- # tumor cell lines GI50, <1 μM (tumor cell lines [2]): 100%
- # tumor cell lines Highly sensitive (tumor cell lines [2]; highly sensitive = degrader GI50 >3 fold more potent than inhibitor): 66%
- # tumor cell lines Low sensitivity/Resistant (tumor cell lines [2]; low sensitivity/resistant = degrader GI50 < inhibitor): 15%

SMILES: CCCC(c1ccc(OCC(=O)NCCOCCOCCOCCOCCOCCNC(=O)c2ccc(-c3ccc4c(c3)[C@H](Nc3ccc(Cl)cc3)C[C@H](C)N4C(C)=O)cc2)cc1)N(C)C(=O)/C=C/c1nccs1 (stereo partly shown) [Example A6]
- DC50 (HiBit-BRD4): < 10 µM

SMILES: CCCC1c2ccc(OCCN3CCC(C(=O)Nc4ncc(SCc5ncc(C(C)(C)C)o5)s4)CC3)cc2CCN1C(=O)/C(C#N)=C/c1cccc(Br)n1 (stereo not shown) [Example A37]
- bioavailability ([3]; 10 mg/kg oral vs 1 mg/kg intravenous): 7.2%
- AUC(0-inf) ([3]; intravenous 1 mg/kg dose): 841 ng·h/mL
- AUC(0-inf) ([3]; oral 10 mg/kg dose): 605 ng·h/mL

SMILES: CCCC(c1ccc(CCCN2CCC(CNc3ncc(SCc4ncc(C(C)(C)C)o4)s3)CC2)cc1)N(C)C(=O)/C(C#N)=C/c1nc2ccccc2s1 (stereo not shown) [Example A39, 3-(benzo[d]thiazol-2-yl)-N-(1-(4-(3-(4-(((5-(((5-(tert-butyl)oxazol-2-yl)methyl)thio)thiazol-2-yl)amino)methyl)piperidin-1-yl)propyl)phenyl)butyl)-2-cyano-N-methylacrylamide]
- brain AUC(0-INF) [4]: 845 ng·h/mL
- Kp ([4]; female, mouse, brain and plasma, ratio of AUC(0-INF)): 0.6
- AUC(0-inf) ([4]; female, mouse, plasma): 1340 ng·h/mL

SMILES: C=CC(=O)N1CCN(c2nc(OC[C@@H]3CCCN3CCCCNC(=O)CCc3ccc(C(CCC)N(C)C(=O)/C(C#N)=C/c4nccs4)cc3)nc3c2CCN(c2cccc4cccc(Cl)c24)C3)C[C@@H]1CC#N (stereo partly drawn) [Example A64, (E)-N-[1-[4-[3-[4-[(2S)-2-[[7-(8-chloro-1-naphthyl)-4-[(3S)-3-(cyanomethyl)-4-prop-2-enoyl-piperazin-1-yl]-6,8-dihydro-5H-pyrido[3,4-d]pyrimidin-2-yl]oxymethyl]pyrrolidin-1-yl]butylamino]-3-oxo-propyl]phenyl]butyl]-2-cyano-N-methyl-3-thiazol-2-yl-prop-2-enamide]
- residual KRas (G12C) abundance (mutant KRas (G12C)): less than 50%

SMILES: Cc1ncsc1-c1ccc(CNC(=O)[C@@H]2C[C@@H](O)CN2C(=O)[C@@H](NC(=O)COCCOCCOCCNC(=O)C[C@@H]2N=C(c3ccc(Cl)cc3)c3c(sc(C)c3C)-n3c(C)nnc32)C(C)(C)C)cc1 [VHL PROTAC (MZ1), MZ1]
- # tumor cell lines GI50, <1 μM (tumor cell lines [1]): 83%
- # tumor cell lines Low sensitivity/Resistant (tumor cell lines [1]): 26%
- # tumor cell lines Highly sensitive (tumor cell lines [1]): 47%
